According to patent US6599900B2, “1-oxa-3,9-diaza-spiro[5,5]undecan-2-ones” (Syntex (U.S.A.) LLC, priority 2001, dated 2003):
Where a name gives a salt, the structure may show the parent alone.

Target: T1, human NK1 receptor (Homo sapiens, UniProt P25103)
T1 construct: expressed in transfected cells; host or cells: CHO cells infected with the Semliki virus expression system; membrane suspension used
Experiment: [3H]substance P binding at human NK1 receptors in CHO cells
Conditions: affinity to the NK-1 receptor; [3H]substance P 0.6 nM displacement, CHO cell membranes, 60 min at room temperature
Procedure: The affinity of test compounds for the NK1 receptor was evaluated at human NK1 receptors in CHO cells infected with the human NK1 receptor (using the Semliki virus expression system) and radiolabelled with [^3H]substance P (final concentration 0.6 nM). Binding assays were performed in HEPES buffer (50 mM, pH 7.4) containing BSA (0.04%) leupeptin (8 μg/ml), MnCl2 (3 mM) and phosphoramidon (2 μM). Binding assays consisted of 250 μl of membrane suspension (1.25×10^5 cells/assay tube), […] of buffer of displacing agent and 125 μl of [^3H]substance P. Displacement curves were determined with at least seven concentrations of the compound. The assay tubes were incubated for 60 min at room temperature after which time the tube contents were rapidly filtered under vacuum through GF/C filters presoaked for 60 min with PEI (0.3%) with 2×2 ml washes of HEPES buffer (50 mM, pH 7.4). The radioactivity retained on the filters was measured by scintillation counting. All assays were performed in triplicate in at least 2 separate experiments.

T1 sequence (P25103 whole entry): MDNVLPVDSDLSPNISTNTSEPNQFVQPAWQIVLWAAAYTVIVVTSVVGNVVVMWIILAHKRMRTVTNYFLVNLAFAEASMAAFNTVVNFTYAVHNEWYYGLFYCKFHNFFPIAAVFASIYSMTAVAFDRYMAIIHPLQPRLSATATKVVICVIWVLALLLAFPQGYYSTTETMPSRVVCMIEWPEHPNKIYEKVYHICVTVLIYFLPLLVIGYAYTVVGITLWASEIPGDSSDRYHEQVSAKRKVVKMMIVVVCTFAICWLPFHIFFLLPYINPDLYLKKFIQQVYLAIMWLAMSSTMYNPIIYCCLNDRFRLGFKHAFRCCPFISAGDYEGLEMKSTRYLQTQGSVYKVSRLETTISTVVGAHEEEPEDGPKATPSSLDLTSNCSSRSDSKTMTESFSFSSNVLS

Structure (SMILES)	Ki
CN(C)CCCN1CC(c2ccccc2)C2(CCN(C(=O)c3cc(C(F)(F)F)cc(C(F)(F)F)c3)CC2)OC1=O (stereo not drawn) [Example 25, (5RS)-9-(3,5-bis-trifluoromethyl-benzoyl)-3-(3-dimethylamino-4-yl-propyl)-5-phenyl-1-oxa-3,9-diaza-spiro[5.5]undecan-2-one]	3.47 nM
O=C1OC2(CCN(C(=O)c3cc(C(F)(F)F)cc(C(F)(F)F)c3)CC2)C(c2ccccc2)CN1CCN1CCOCC1 (stereo not drawn) [Example 27, (5RS)-9-(3,5-2is-trifluoromethyl-benzoyl)-3-(2-morpholin-4-yl-ethyl)-5-phenyl-1-oxa-3,9-diaza-spiro[5.5]undecan-2-one hydrochloride]	6.31 nM
